Assay results: patent publication US20200062696A1, “COMPOSITIONS AND METHODS FOR INHIBITING RETICULON 4” (THE REGENTS OF THE UNIVERSITY OF CALIFORNIA, priority 2017, published 2020)
“Also recorded” adds a separate entry of the source.

Legend:
U2OS osteosarcoma cells = assay: Serum-free cell survival of U2OS cells; assay type: cell-based; details: 50 μM, 48 h
Procedure: (§1) FIGS. 11A-11C. DKM 3-30 and analogs. (FIG. 11A) Structures of DKM 3-30 and analogs. (FIG. 11B) Gel-based ABPP analysis showing competition side-by-side competition studies of DKM 3-30, YP 1-46, and AMR 1-125 against IA-rhodamine labelling of pure human RTN4. Shown are the 50% inhibitory concentration (IC50) values for each compound. (FIG. 11C) Serum-free cell survival of U2OS (48 h) or SW620 (24 h) cells treated with DMSO vehicle or each compound (50 μM). Data in (C) are presented as mean±sem. Significance is expressed as *p<0.001 compared to vehicle-treated controls.
(§2) Cell Culture. SW620 cells were purchased from ATCC. SW620 cells were grown in L-15 media with 10% fetal bovine serum (FBS) in ambient CO2. U2OS cells were grown in DMEM media supplemented with 10% FBS at 37° C. with 5% CO2.
(§3) Survival and Proliferation Assays. Cells were plated the evening before the experiment, and allowed to adhere overnight. For serum-free cell survival assays, cells were plated in media not containing FBS. For cell proliferation assays, cells were plated in regular media. For the chemical genetics screen, cells were treated with either DMSO or the cysteine-reactive fragment for 48 h and cell viability was assessed by Hoescht stain using our previously described methods

[1] = test system: U2OS cells expressing GFP-tagged Sec61β; assay: ER morphology by fluorescence microscopy in U2OS cells expressing GFP-Sec61β; assay type: cell-based; details: DKM 3-30 50 μM (8 hr, 16 hr, time-lapse); AMR 1-125 1 μM; YP 1-46 50 μM
Procedure: Fluorescence microscopy. SW620 and U2OS cells were transiently transfected with a plasmid encoding GFP-tagged Sec61β using fuGENE6 (Roche) according to the manufacturer's instructions. Transfected cells plated on poly-L-lysine treated coverslips were treated, washed in PBS, and fixed by incubation in 4% paraformaldehyde in PBS for 10 min. Fixed cells were washed extensively in PBS and nuclei stained by addition of 4′,6-diamidino-2-phenylindole (DAPI) (Thermo Fisher Scientific) for 10 min. Coverslips were mounted using Fluoromount-G (SouthernBiotech) and visualized using a DeltaVision Elite microscope outfitted with a 60× oil immersion objective. Acquired stacks of images of fixed cells were deconvolved and analyzed using SoftWoRx and ImageJ. For time-lapse imaging of live cells, transfected cells were plated on poly-L-lysine treated glass-bottom 4-well imaging chambers (Lab-Tek II; Thermo Fisher Scientific). Imaging was performed using a DeltaVision Elite microscope encased in a chamber that was maintained at 37° C. and was continuously perfused with humidified 5% CO2. Acquired images were analyzed using SoftWoRx and ImageJ.

pure human RTN4 protein = target: T1, pure human RTN4 protein (Homo sapiens, UniProt Q9NQC3); assay: Gel-based ABPP competition against IAyne labeling of pure human RTN4 protein; assay type: binding
T1 construct: purchased Fisher Scientific
T1 sequence (Q9NQC3 1-1192): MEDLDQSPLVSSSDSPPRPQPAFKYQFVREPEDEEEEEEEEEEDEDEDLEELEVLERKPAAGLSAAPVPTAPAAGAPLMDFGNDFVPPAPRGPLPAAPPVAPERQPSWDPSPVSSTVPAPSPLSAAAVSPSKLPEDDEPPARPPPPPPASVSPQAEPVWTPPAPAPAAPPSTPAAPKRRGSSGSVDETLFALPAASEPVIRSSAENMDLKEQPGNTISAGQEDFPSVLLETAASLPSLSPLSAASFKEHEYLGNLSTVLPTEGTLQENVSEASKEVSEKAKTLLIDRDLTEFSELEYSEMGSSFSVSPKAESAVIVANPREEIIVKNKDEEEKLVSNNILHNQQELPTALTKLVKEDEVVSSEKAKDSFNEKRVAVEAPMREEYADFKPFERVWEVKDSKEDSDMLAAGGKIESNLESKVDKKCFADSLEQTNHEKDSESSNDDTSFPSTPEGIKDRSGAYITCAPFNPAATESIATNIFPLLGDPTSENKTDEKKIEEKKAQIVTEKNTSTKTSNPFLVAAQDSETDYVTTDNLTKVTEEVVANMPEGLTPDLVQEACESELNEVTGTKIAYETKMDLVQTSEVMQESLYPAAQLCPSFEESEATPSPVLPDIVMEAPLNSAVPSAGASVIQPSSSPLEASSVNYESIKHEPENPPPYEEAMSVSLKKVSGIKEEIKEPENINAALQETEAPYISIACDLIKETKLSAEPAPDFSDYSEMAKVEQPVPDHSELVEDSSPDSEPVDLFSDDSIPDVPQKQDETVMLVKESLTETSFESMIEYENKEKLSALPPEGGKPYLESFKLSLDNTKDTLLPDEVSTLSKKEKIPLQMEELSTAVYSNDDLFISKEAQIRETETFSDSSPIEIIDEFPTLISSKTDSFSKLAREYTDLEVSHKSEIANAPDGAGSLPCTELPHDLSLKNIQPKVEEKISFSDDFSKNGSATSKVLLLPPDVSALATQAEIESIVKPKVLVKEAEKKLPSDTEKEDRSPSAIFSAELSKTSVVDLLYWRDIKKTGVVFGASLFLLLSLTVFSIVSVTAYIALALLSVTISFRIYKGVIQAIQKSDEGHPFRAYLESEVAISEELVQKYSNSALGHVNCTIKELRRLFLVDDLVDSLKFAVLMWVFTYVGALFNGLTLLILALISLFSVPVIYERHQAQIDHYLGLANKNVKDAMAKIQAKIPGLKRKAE
Procedure: as §1
Gel-Based ABPP. Gel-based ABPP methods were performed as previously described^24. Recombinant RTN4 (0.06 μg) protein (RTN4-Fisher Scientific) were pre-treated with DMSO or DKM 3-30, respectively, for 1 h at 37° C. in an incubation volume of 50 μL PBS, and were subsequently treated with IAyne (10 μM final concentration) for 30 min at 37° C. CuAAC was performed to append rhodamine-azide onto IAyne probe-labeled proteins. The samples were separated by SDS/PAGE and scanned using a ChemiDoc MP (Bio-Rad Laboratories, Inc). Inhibition of target labeling was assessed by densitometry using ImageStudio Light software.

[2] = test system: SW620 colorectal cancer cells; assay: Serum-free cell survival of SW620 cells (Hoescht staining); assay type: cell-based; details: Homo sapiens, SW-620, cysteine-reactive fragment 50 μM, 48 h, vs DMSO, average of n = 3/group, read-out: SW620 survival Ave
Procedure: as §2, §3

[3] = test system: SW620 colorectal cancer cells; assay: Cell proliferation of SW620 cells (Hoescht staining); assay type: cell-based; details: Homo sapiens, SW-620, cysteine-reactive fragment 50 μM, 48 h, vs DMSO, average of n = 3/group, read-out: SW620 proliferation Ave
Procedure: as §2, §3

[4] = test system: SW620 colorectal cancer cells; assay: Serum-free cell survival of SW620 cells (Hoescht staining); assay type: cell-based; details: 50 μM, 24 h

SMILES | viability at 50 µM [2] [%] | activity at 50 µM [3] [%] | other results
C=CC(=O)Nc1ccc(Oc2ccc(OC)cc2)cc1 [YP 1-46, N-(4-(4-methoxyphenoxy)phenyl)acrylamide] | – | – | cell survival in U2OS cells (U2OS osteosarcoma cells): not; ER morphology in U2OS cells [1]: not; displacement of IAyne labelling of RTN4 (pure human RTN4 protein; pure human RTN4 protein, gel-based ABPP): less displacement
C=CC(=O)NC(c1ccccc1)c1ccccc1 [DKM 3-4, N-benzhydrylacrylamide] | 122 | 120 | –
C=CC(=O)Nc1ccccc1 [TRH 1-19, N-Phenylacrylamide] | 101 | 119 | –
C=CC(=O)Nc1cccc2c1CCC2 [DKM 2-84, N-(2,3-dihydro-1H-inden-4-yl)acrylamide] | 74 | 84 | –
C=CC(=O)NCc1ccccc1 [DKM 2-31, N-benzylacrylamide] | 89 | 116 | –
C=CC(=O)NCCCCCCCCCC [TRH 1-12, N-decylacrylamide] | 49 | 89 | –
C=CC(=O)N1CCN(C(=O)OCC)CC1 [DKM 2-39, Ethyl 4-acryloylpiperazine-1-carboxylate] | 93 | 110 | –
C=CC(=O)N1CCN(C(=O)OC(C)(C)C)CC1 [DKM 2-111, tert-butyl 4-acryloylpiperazine-1-carboxylate] | 133 | 106 | –
C=CC(=O)NCc1ccccc1[N+](=O)[O-] [DKM 2-62, N-(2-nitrobenzyl)acrylamide] | 115 | 95 | –
C=CC(=O)NCc1ccc(OC)cc1OC [TRH 1-13, N-(2,4-dimethoxybenzyl)acrylamide] | 94 | 128 | –
COc1ccc(CNC(=O)CCl)cc1OC [DKM 2-93, 2-chloro-N-(3,4-dimethoxybenzyl)acetamide] | 74 | 57 | –
C=CC(=O)N1CCC(C)CC1 [DKM 3-8, 1-(4-methylpiperidin-1-yl)prop-2-en-1-one] | 152 | 105 | –
C=CC(=O)NC1CCCCC1 [DKM 2-106, N-cyclohexylacrylamide] | 144 | 100 | –
C=CC(=O)Nc1ccc(Cl)cc1 [DKM 2-107, N-(4-chlorophenyl)acrylamide] | 86 | 99 | –
C=CC(=O)NCCc1ccccc1 [DKM 2-42, N-phenethylacrylamide] | 104 | 137 | –
C=CC(=O)N1CCCCC1CC (stereo not drawn) [TRH 1-27, 1-(2-ethylpiperidin-1-yl)prop-2-en-1-one] | 144 | 125 | –
C=CC(=O)Nc1ccc(Oc2ccc(C(C)(C)C)cc2)cc1 [AMR 1-125, N-(4-(4-(tert-butyl)phenoxy)phenyl)acrylamide] | – | – | cell survival in U2OS cells (U2OS osteosarcoma cells): impaired; ER morphology in U2OS cells [1]: impaired; also recorded: alters ER morphology; cell survival in SW620 cells [4]: impaired; improved potency compared to DKM 3-30 (pure human RTN4 protein; competition against probe labelling of pure human RTN4, from IC50 values of FIG. 11B): ~7 fold
O=C(CCl)NCc1ccccc1Cl [DKM 2-94, 2-Chloro-N-(2-chlorobenzyl)acetamide] | 43 | 32 | –
